Measured values: PMC12396409, “Screening and hit evaluation of a microbial metabolite library against the pathogenic Plasmodium falciparum and Toxoplasma gondii parasites” (International Journal for Parasitology: Drugs and Drug …, 2025)
Like-named read-outs stand apart in the source and are kept apart here. *1 amine or outer side, *2 acyl side, *3 side chain or, on linkers, in order; H or OH if unused. Where a SMILES comes first, the peptide text is derived from it. Bridges are numbered along the chain shown (N, C = ends). [ ]: non-standard residue; d: D form. The star is where a group is joined. pTerphenylCO(4''-OnC5H11) = CCCCCOc1ccc(-c2ccc(-c3ccc(C(=O)*)cc3)cc2)cc1; Orn(4R-OH,5R-OH) = O=C([C@H](C[C@@H](O)[C@@H](O)N[*:3])N[*:1])[*:2]; hTyr(3S-OH,4S-OH) = N[C@H](C(=O)O)[C@H](O)[C@@H](O)c1ccc(O)cc1; Pro(3S-OH,4S-Me) = C[C@H]1CN[C@H](C(=O)O)[C@H]1O; Hyp = O=C(O)[C@@H]1C[C@@H](O)CN1

Columns and labels:
[1] = tested on: P. falciparum 3D7 parasites; assay: P. falciparum growth inhibition assay, 2-cycle (120 h treatment), delayed-death screen and dose-response; type: cell-based, Plasmodium falciparum; conditions: for activity at 2 µg/mL: Plasmodium falciparum
[2] = tested on: P. falciparum 3D7 parasites; assay: P. falciparum growth inhibition assay, 1-cycle (72 h treatment), SYBR DNA staining (library screen at 2 μg/mL and dose-response); type: cell-based, Plasmodium falciparum; conditions: for activity at 2 µg/mL: Plasmodium falciparum
[3] = tested on: T. gondii RH strain (RH-Tub-eYFP) tachyzoites; assay: microbe, parasite or virus in culture; type: cell-based, Toxoplasma gondii; conditions: 72 h; for percent parasite growth at 2 µg/mL: Toxoplasma gondii
[4] = P. falciparum, 120 h, screen at 2 μg/mL, replicate 1
[5] = P. falciparum, 120 h, screen at 2 μg/mL, replicate 2
[6] = P. falciparum, 72 h, screen at 2 μg/mL, replicate 1
[7] = P. falciparum, 72 h, screen at 2 μg/mL, replicate 2
[8] = T. gondii, screen at 2 μg/mL, replicate 1
[9] = T. gondii, screen at 2 μg/mL, replicate 2

SMILES: CC(=O)N[C@H]1CCOC1=O [Acetyl-L-homoserine lactone]
- Pf_120h_%Growth_Rep1 ([1]; library screen at 2 μg/mL, 120 h, % growth, replicate 1): 2.96%
- Pf_120h_%Growth_Rep2 ([1]; library screen at 2 μg/mL, 120 h, % growth, replicate 2): 5.45%
- Pf_72h_%Growth_Rep1 ([2]; library screen at 2 μg/mL, 72 h, % growth, replicate 1): 5.19%
- Pf_72h_%Growth_Rep2 ([2]; library screen at 2 μg/mL, 72 h, % growth, replicate 2): 20.05%
- Tg_72h_%Growth_Rep1 ([3]; library screen at 2 μg/mL, % growth, replicate 1): 88.39%
- Tg_72h_%Growth_Rep2 ([3]; library screen at 2 μg/mL, % growth, replicate 2): 103.34%

SMILES: CC[C@H](C)[C@H]1NC(=O)c2c1n(C)c1ccccc1c2=O [Quinolactacin A1]
- Pf_120h_%Growth_Rep1 ([1]; P. falciparum, 120 h, parasite screen 2 μg/mL, % growth, replicate 1): 17.07%
- Pf_120h_%Growth_Rep2 ([1]; P. falciparum, 120 h, parasite screen 2 μg/mL, % growth, replicate 2): -10.01%
- Pf_72h_%Growth_Rep1 ([2]; P. falciparum, 72 h, parasite screen 2 μg/mL, % growth, replicate 1): 15.83%
- Pf_72h_%Growth_Rep2 ([2]; P. falciparum, 72 h, parasite screen 2 μg/mL, % growth, replicate 2): 6.94%
- Tg_72h_%Growth_Rep1 ([3]; T. gondii, parasite screen 2 μg/mL, % growth, replicate 1): 131.04%
- Tg_72h_%Growth_Rep2 ([3]; T. gondii, parasite screen 2 μg/mL, % growth, replicate 2): 75.52%

SMILES: C/C=C/[C@H]1O[C@@](O)([C@@H](C)[C@H](O)[C@H](C)[C@H]2OC(=O)/C(OC)=C/C(C)=C/[C@@H](C)[C@@H](O)[C@@H](CC)[C@@H](O)[C@H](C)C/C(C)=C/C=C/[C@@H]2OC)C[C@@H](O[C@H]2C[C@@H](O)[C@H](OC(N)=O)[C@@H](C)O2)[C@@H]1C [Concanamycin A]
- activity at 2 µg/mL ([1]; 3D7, 120 h, P. falciparum, 120 h, screen at 2 μg/mL, replicate 1, read-out: Pf_120h_%Growth_Rep1): 0.77%
- activity at 2 µg/mL ([1]; 3D7, 120 h, P. falciparum, 120 h, screen at 2 μg/mL, replicate 2, read-out: Pf_120h_%Growth_Rep2): 5.18%
- activity at 2 µg/mL ([2]; 3D7, 72 h, P. falciparum, 72 h, screen at 2 μg/mL, replicate 1, read-out: Pf_72h_%Growth_Rep1): 2.64%
- activity at 2 µg/mL ([2]; 3D7, 72 h, P. falciparum, 72 h, screen at 2 μg/mL, replicate 2, read-out: Pf_72h_%Growth_Rep2): 2.16%
- percent parasite growth at 2 µg/mL ([3]; T. gondii, screen at 2 μg/mL, replicate 1, read-out: Tg_72h_%Growth_Rep1): -1.66%
- percent parasite growth at 2 µg/mL ([3]; T. gondii, screen at 2 μg/mL, replicate 2, read-out: Tg_72h_%Growth_Rep2): 0.56%

SMILES: CCCCCOc1ccc(-c2ccc(-c3ccc(C(=O)N[C@H]4C[C@@H](O)[C@@H](O)NC(=O)[C@@H]5[C@@H](O)[C@@H](C)CN5C(=O)[C@H]([C@@H](C)O)NC(=O)[C@H]([C@H](O)[C@@H](O)c5ccc(O)cc5)NC(=O)[C@@H]5C[C@@H](O)CN5C(=O)[C@H]([C@@H](C)O)NC4=O)cc3)cc2)cc1 [Anidulafungin] ({pTerphenylCO(4''-OnC5H11)}-[Orn(4R-OH,5R-OH)]T[Hyp][hTyr(3S-OH,4S-OH)]T[Pro(3S-OH,4S-Me)]; lactam 1-C)
- activity at 2 µg/mL ([1]; 3D7, library screen at 2 μg/mL, 120 h, % growth, replicate 1, read-out: Pf_120h_%Growth_Rep1): 162%
- activity at 2 µg/mL ([1]; 3D7, library screen at 2 μg/mL, 120 h, % growth, replicate 2, read-out: Pf_120h_%Growth_Rep2): 103%
- activity at 2 µg/mL ([2]; 3D7, library screen at 2 μg/mL, 72 h, % growth, replicate 1, read-out: Pf_72h_%Growth_Rep1): 93.1%
- activity at 2 µg/mL ([2]; 3D7, library screen at 2 μg/mL, 72 h, % growth, replicate 2, read-out: Pf_72h_%Growth_Rep2): 85.8%
- percent parasite growth at 2 µg/mL ([3]; library screen at 2 μg/mL, % growth, replicate 1, read-out: Tg_72h_%Growth_Rep1): 88.8%
- percent parasite growth at 2 µg/mL ([3]; library screen at 2 μg/mL, % growth, replicate 2, read-out: Tg_72h_%Growth_Rep2): 95.8%

SMILES: CC(=O)N[C@H]1[C@H](O[C@@H]2c3ccc(c(Cl)c3)Oc3cc4cc(c3O)Oc3ccc(cc3Cl)C[C@H]3NC(=O)[C@H](N)c5ccc(O)c(c5)Oc5cc(O)cc(c5)[C@H](NC3=O)C(=O)N[C@H]4C(=O)N[C@H]3C(=O)N[C@@H]2C(=O)N[C@H](C(=O)O)c2cc(O)cc(O[C@H]4O[C@H](CO)[C@@H](O)[C@H](O)[C@@H]4O)c2-c2cc3ccc2O)O[C@H](CO)[C@@H](O)[C@@H]1O [Teicoplanin A3-1]
- Pf_120h_%Growth_Rep1 [1, 4]: 162.68%
- Pf_120h_%Growth_Rep2 [1, 5]: 89.82%
- Pf_72h_%Growth_Rep1 [2, 6]: 83.89%
- Pf_72h_%Growth_Rep2 [2, 7]: 89.40%
- Tg_72h_%Growth_Rep1 [3, 8]: 92.73%
- Tg_72h_%Growth_Rep2 [3, 9]: 87.18%

SMILES: CN[C@@H]1C[C@H]2O[C@@](C)([C@@H]1OC)n1c3ccccc3c3c4c(c5c6ccccc6n2c5c31)C(=O)N[C@H]4O [UCN-02]
- Pf_120h_%Growth_Rep1 [1, 4]: 30.31%
- Pf_120h_%Growth_Rep2 [1, 5]: 6.39%
- Pf_72h_%Growth_Rep1 [2, 6]: 0.18%
- Pf_72h_%Growth_Rep2 [2, 7]: -6.73%
- Tg_72h_%Growth_Rep1 [3, 8]: 2.39%
- Tg_72h_%Growth_Rep2 [3, 9]: 1.72%

SMILES: CNC1CC2OC(C)(C1OC)n1c3ccccc3c3c4c(c5c6ccccc6n2c5c31)C(=O)NC4=O (stereo not drawn) [BIA-O1137]
- Pf_120h_%Growth_Rep1 ([1]; P. falciparum 3D7, 120 h, parasite screen at 2 μg/mL, % growth, replicate 1): 5.90%
- Pf_120h_%Growth_Rep2 ([1]; P. falciparum 3D7, 120 h, parasite screen at 2 μg/mL, % growth, replicate 2): 15.39%
- Pf_72h_%Growth_Rep1 ([2]; P. falciparum 3D7, 72 h, parasite screen at 2 μg/mL, % growth, replicate 1): 5.55%
- Pf_72h_%Growth_Rep2 ([2]; P. falciparum 3D7, 72 h, parasite screen at 2 μg/mL, % growth, replicate 2): 3.48%
- Tg_72h_%Growth_Rep1 ([3]; T. gondii, parasite screen at 2 μg/mL, % growth, replicate 1): 57.26%
- Tg_72h_%Growth_Rep2 ([3]; T. gondii, parasite screen at 2 μg/mL, % growth, replicate 2): 18.54%
